Assay results from patent US20240174618A1, “SUBSTITUTED (2-HETEROARYLOXYPHENYL)SULFONATES, SALTS THEREOF AND THEIR USE AS HERBICIDAL AGENTS” (Bayer Aktiengesellschaft, priority 2021, published 2024).

How the values were obtained:
Type in all cases: in vivo
[1] = tested on: Echinochloa crus-galli (ECHCG); assay: A. Herbicidal pre-emergence efficacy, ECHCG; conditions: scored visually after about 3 weeks vs untreated controls
Method in brief: (§1)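 Applied before emergence onto covering soil at rates of 1280 g/ha or less, using 600 L/ha spray water with 0.5% additive. Scoring: visual % efficacy after ~3 weeks, greenhouse.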

Veronica persica (VERPE) [2] = assay: C. Herbicidal pre-emergence efficacy, VERPE; conditions: scored after about 3 weeks
Method in brief: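 Pre-emergence test: formulated compounds sprayed as aqueous suspension or emulsion with 0.5% additive at 600 l/ha onto soil covering sown seeds, at rates corresponding to 320 g/ha or less. After about 3 weeks in greenhouse, efficacy scored visually as percent versus untreated controls (100% = plants dead).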

[3] = tested on: Echinochloa crus-galli (ECHCG); assay: B. Herbicidal post-emergence efficacy, ECHCG; conditions: rated visually after about 3 weeks
Method in brief: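 Visual percent efficacy relative to untreated controls (0% unaffected, 100% dead), scored roughly 3 weeks after foliar spraying of one-leaf-stage pot-grown plants with WP or EC preparations at application rates up to 1280 g/ha in 600 L/ha water containing 0.5% additive.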

Kochia scoparia (KCHSC) = assay: A. Herbicidal pre-emergence efficacy, KCHSC
Method in brief: as §1

Veronica persica (VERPE) [4] = assay: A. Herbicidal pre-emergence efficacy, VERPE; conditions: for Pre-emergence efficacy against VERPE: dosage 80 g/ha
Method in brief: as §1

Setaria viridis (SETVI) = assay: A. Herbicidal pre-emergence efficacy, SETVI
Method in brief: as §1

[5] = tested on: Matricaria inodora (MATIN); assay: A. Herbicidal pre-emergence efficacy, MATIN
Method in brief: as §1

[6] = pre-emergence, dosage 1280 g/ha
[7] = 80 g/ha, scored visually after about 3 weeks vs untreated controls
[8] = 320 g/ha, scored visually after about 3 weeks vs untreated controls

| SMILES | Pre-emergence efficacy against ECHCG ([1]; 320 g/ha) | Pre-emergence efficacy against ECHCG ([1]; 1280 g/ha) | Pre-emergence efficacy against VERPE (Veronica persica (VERPE) [2]; 80 g/ha) | Pre-emergence efficacy against VERPE (Veronica persica (VERPE) [2]; 320 g/ha) | Post-emergence efficacy against ECHCG in % ([3]; 320 g/ha) | Post-emergence efficacy against ECHCG in % ([3]; 1280 g/ha) | Pre-emergence efficacy against KCHSC (Kochia scoparia (KCHSC); pre-emergence, dosage 320 g/ha) | Pre-emergence efficacy against KCHSC (Kochia scoparia (KCHSC); [6]) | Pre-emergence efficacy against VERPE in % (Veronica persica (VERPE) [4]; 320 g/ha) | Pre-emergence efficacy against VERPE in % (Veronica persica (VERPE) [4]; 1280 g/ha) | Pre-emergence efficacy against VERPE (Veronica persica (VERPE) [4]) | Pre-emergence efficacy against SETVI (Setaria viridis (SETVI); dosage 320 g/ha) | Pre-emergence efficacy against SETVI (Setaria viridis (SETVI); dosage 1280 g/ha) | Pre-emergence efficacy against ECHCG ([1]; 80 g/ha) | Post-emergence efficacy against ECHCG in % ([3]; 80 g/ha) | Pre-emergence efficacy against KCHSC (Kochia scoparia (KCHSC); [7]) | Pre-emergence efficacy against SETVI (Setaria viridis (SETVI); dosage 80 g/ha) | Pre-emergence efficacy against MATIN [5, 8] | Pre-emergence efficacy against MATIN [5, 6] |
| --- | --- | --- | --- | --- | --- | --- | --- | --- | --- | --- | --- | --- | --- | --- | --- | --- | --- | --- | --- |
| Cc1cccc(Oc2ncc(Cl)cn2)c1OS(=O)(=O)CC1CC(F)(F)C1 [Example I-74] | 90% | 100% | 80% | 100% | 100% | 100% | 90% | 100% | 100% | 100% | 90% | 90% | 100% |  |  |  |  |  |  |
| O=S(=O)(CCCCCl)Oc1ccccc1Oc1ncc(Cl)cn1 [Example I-15] | 100% | 100% |  | 80% | 100% | 100% | 100% | 100% | 90% | 90% |  | 100% | 100% | 100% | 90% | 100% | 100% |  |  |
| O=S(=O)(CCCC(F)(F)F)Oc1ccccc1Oc1ncc(Cl)cn1 [Example I-10] | 100% | 100% | 100% | 100% | 100% | 100% | 100% | 100% | 100% | 100% | 90% | 90% | 100% | 100% | 100% | 100% | 90% | 100% | 100% |
| O=S(=O)(CCC1CC1)Oc1c(F)cccc1Oc1ncc(Cl)cn1 [Example I-55] | 100% | 100% |  | 100% | 90% | 90% | 100% | 100% | 100% | 100% |  | 100% | 100% |  |  |  | 100% |  |  |
| O=S(=O)(CCCCl)Oc1cccc(F)c1Oc1ncc(Cl)cn1 [Example I-13] |  | 100% |  | 90% |  | 90% |  | 100% |  | 100% |  |  | 100% |  |  |  |  |  |  |
| O=S(=O)(CCCC(F)(F)F)Oc1c(F)cccc1Oc1ncc(Br)cn1 [Example I-41] | 100% | 100% | 100% | 100% |  |  | 100% | 100% | 100% | 100% | 90% | 100% | 100% |  |  | 100% | 100% | 100% | 100% |
| CC(C)CCS(=O)(=O)Oc1ccccc1Oc1ncc(Cl)cn1 [Example I-25] | 100% | 100% | 80% | 100% | 90% | 100% | 100% | 100% |  | 90% |  | 100% | 100% |  |  | 90% |  |  | 100% |
| O=S(=O)(CCC(F)(F)F)Oc1c(Cl)cccc1Oc1ncc(Cl)cn1 [Example I-38] | 90% | 100% | 100% | 100% |  |  | 100% | 100% | 90% | 100% | 90% | 100% | 100% |  |  |  | 90% | 100% | 100% |
| Cc1cccc(OS(=O)(=O)CCCCl)c1Oc1ncc(Cl)cn1 [Example I-12] | 90% | 100% |  | 90% |  |  | 90% | 100% | 90% | 100% |  | 100% | 100% |  |  |  |  | 90% | 100% |
| O=S(=O)(CCC(F)=C(F)F)Oc1c(Cl)cccc1Oc1ncc(Cl)cn1 [Example I-73] |  | 90% |  | 80% | 90% | 100% | 90% | 90% |  | 100% |  | 90% | 100% |  |  |  |  |  |  |
| O=S(=O)(CCC(F)(F)F)Oc1c(F)cccc1Oc1ncc(Br)cn1 [Example I-40] | 100% | 100% | 100% | 100% |  |  | 100% | 100% | 100% | 100% | 100% | 100% | 100% | 100% |  | 100% | 100% | 100% | 100% |
| O=S(=O)(CCCC(F)(F)F)Oc1c(Cl)cccc1Oc1ncc(Cl)cn1 [Example I-39] | 90% | 100% | 100% | 100% |  |  | 100% | 100% | 100% | 100% | 90% | 100% | 100% |  |  | 100% | 90% | 100% | 100% |
